Each block holds one molecule with its values, some of them ahead of it.
How the values were obtained:
[1] = in vitro; conditions: rat, plasma
Description: Protein binding in rat plasma

[2] = in vivo; conditions: ICR, mouse, po, 10 mg/kg
[3] = in vivo; conditions: beagle, dog, po, 5 mg/kg
Description: Half life in Beagle dog at 5 mg/kg, po by LC-MS/MS analysis

[4] = in vitro; conditions: rat, plasma; remark: listed apart in the source
Description: Metabolic stability in rat plasma assessed as parent compound remaining after 30 mins

[5] = in vivo; conditions: Sprague-Dawley, rat, iv, 5 mg/kg
Description: Half life in Sprague-Dawley rat at 5 mg/kg, iv by LC-MS/MS analysis

[6] = target: CYP3A4 (Homo sapiens, UniProt P08684); experiment: in vitro
Description: Inhibition of CYP3A4 (unknown origin) assessed as residual activity at 10 uM relative to control

[7] = in vitro; conditions: human, microsomes
Description: Metabolic stability in human liver microsomes assessed as parent compound remaining after 30 mins

[8] = target: CYP2D6 (Homo sapiens, UniProt P10635); experiment: in vitro
Description: Inhibition of CYP2D6 (unknown origin) assessed as residual activity at 10 uM relative to control

[9] = in vivo; conditions: beagle, dog, iv, 3 mg/kg
Description: MRT in Beagle dog at 3 mg/kg, iv by LC-MS/MS analysis

[10] = in vivo; conditions: Sprague-Dawley, rat, po, 10 mg/kg
Description: Half life in Sprague-Dawley rat at 10 mg/kg, po by LC-MS/MS analysis

[11] = in vivo; conditions: beagle, dog, iv, 3 mg/kg; remark: listed apart in the source
Description: Half life in Beagle dog at 3 mg/kg, iv by LC-MS/MS analysis

[12] = in vivo; conditions: beagle, dog, po, 5 mg/kg; remark: listed apart in the source
Description: Tmax in Beagle dog at 5 mg/kg, po by LC-MS/MS analysis

[13] = target: CYP2C19 (Homo sapiens, UniProt P33261); experiment: in vitro
Description: Inhibition of CYP2C19 (unknown origin) assessed as residual activity at 10 uM relative to control

[14] = in vivo; conditions: beagle, dog, po, 5 mg/kg; remark: listed apart in the source
Description: Cmax in Beagle dog at 5 mg/kg, po by LC-MS/MS analysis

[15] = in vivo; conditions: ICR, mouse, po, 10 mg/kg; remark: listed apart in the source
Description: MRT in ICR mouse at 10 mg/kg, po by LC-MS/MS analysis

[16] = in vitro; conditions: human, Caco-2
[17] = in vitro; conditions: mouse, microsomes
Description: Metabolic stability in mouse liver microsomes assessed as parent compound remaining after 30 mins

[18] = target: CYP2C9 (Homo sapiens, UniProt P11712); experiment: in vitro
Description: Inhibition of CYP2C9 (unknown origin) assessed as residual activity at 10 uM relative to control

[19] = target: T1, CYP1A2 (Homo sapiens, UniProt P05177); experiment: in vitro
T1 sequence (P05177 whole entry): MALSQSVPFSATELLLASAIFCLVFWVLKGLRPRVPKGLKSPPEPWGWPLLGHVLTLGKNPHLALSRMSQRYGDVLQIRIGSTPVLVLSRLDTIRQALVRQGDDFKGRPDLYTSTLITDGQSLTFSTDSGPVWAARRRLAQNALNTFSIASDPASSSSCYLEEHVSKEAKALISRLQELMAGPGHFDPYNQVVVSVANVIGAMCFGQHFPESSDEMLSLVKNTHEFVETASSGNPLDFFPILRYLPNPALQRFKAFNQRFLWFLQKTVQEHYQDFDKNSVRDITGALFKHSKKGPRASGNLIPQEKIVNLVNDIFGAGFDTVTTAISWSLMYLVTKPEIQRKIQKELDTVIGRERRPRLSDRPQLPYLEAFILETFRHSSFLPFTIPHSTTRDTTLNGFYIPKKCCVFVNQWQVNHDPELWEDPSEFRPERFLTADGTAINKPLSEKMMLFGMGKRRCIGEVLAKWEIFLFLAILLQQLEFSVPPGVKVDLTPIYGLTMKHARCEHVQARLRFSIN
Description: Inhibition of CYP1A2 (unknown origin) assessed as residual activity at 10 uM relative to control

[20] = in vivo; conditions: Sprague-Dawley, rat, iv, 5 mg/kg; remark: listed apart in the source
Description: AUC (0 to infinity) in Sprague-Dawley rat at 5 mg/kg, iv by LC-MS/MS analysis

[21] = target: Voltage-gated inwardly rectifying potassium channel KCNH2 (Homo sapiens, UniProt Q12809)
Description: Inhibition of human ERG expressed in HEK293 cells by automated patch clamp method

[22] = in vitro; conditions: human, Caco-2; remark: listed apart in the source
[23] = in vivo; conditions: ICR, mouse, po, 10 mg/kg; remark: listed apart in the source
[24] = in vivo; conditions: beagle, dog, iv, 3 mg/kg; remark: listed apart in the source
[25] = in vitro; conditions: human, plasma
Description: Protein binding in human plasma

[26] = species on record: Mus musculus; conditions: in vivo, po, 10 mg/kg
[27] = in vivo; conditions: Sprague-Dawley, rat, po, 10 mg/kg; remark: listed apart in the source
[28] = in vitro; conditions: rat, microsomes
Description: Metabolic stability in rat liver microsomes assessed as parent compound remaining after 30 mins

[29] = in vivo; conditions: ICR, mouse, po, 10 mg/kg; remark: listed apart in the source
[30] = in vivo; conditions: Sprague-Dawley, rat, po, 10 mg/kg; remark: listed apart in the source
[31] = target: T2, Tyrosine-protein kinase JAK2 (Homo sapiens, UniProt O60674); conditions: read-out: INH
Description: Inhibition of recombinant human JAK2 (808-end residues) at 10 uM in presence of ATP relative to control

[32] = in vivo; conditions: ICR, mouse, iv, 5 mg/kg
Description: AUC (0 to infinity) in ICR mouse at 5 mg/kg, iv by LC-MS/MS analysis

[33] = in vivo; conditions: ICR, mouse, po, 10 mg/kg; remark: listed apart in the source
Description: Half life in ICR mouse at 10 mg/kg, po by LC-MS/MS analysis

[34] = in vivo; conditions: ICR, mouse, iv, 5 mg/kg; remark: listed apart in the source
Description: AUC (0 to t) in ICR mouse at 5 mg/kg, iv by LC-MS/MS analysis

[35] = in vivo; conditions: Sprague-Dawley, rat, po, 10 mg/kg; remark: listed apart in the source
[36] = in vitro; conditions: dog, microsomes
Description: Metabolic stability in dog liver microsomes assessed as parent compound remaining after 30 mins

[37] = in vivo; conditions: beagle, dog, po, 5 mg/kg; remark: listed apart in the source
Description: AUC (0 to t) in Beagle dog at 5 mg/kg, po by LC-MS/MS analysis

[38] = in vivo; conditions: beagle, dog, po, 5 mg/kg; remark: listed apart in the source
Description: AUC (0 to infinity) in Beagle dog at 5 mg/kg, po by LC-MS/MS analysis

[39] = in vivo; conditions: Sprague-Dawley, rat, po, 10 mg/kg; remark: listed apart in the source
Description: MRT in Sprague-Dawley rat at 10 mg/kg, po by LC-MS/MS analysis

[40] = in vitro; conditions: human, plasma; remark: listed apart in the source
Description: Metabolic stability in human plasma assessed as parent compound remaining after 120 mins

[41] = in vivo; conditions: Sprague-Dawley, rat, iv, 5 mg/kg; remark: listed apart in the source
Description: MRT in Sprague-Dawley rat at 5 mg/kg, iv by LC-MS/MS analysis

[42] = in vivo; conditions: ICR, mouse, iv, 5 mg/kg; remark: listed apart in the source
Description: Half life in ICR mouse at 5 mg/kg, iv by LC-MS/MS analysis

[43] = in vitro; conditions: human, plasma; remark: listed apart in the source
Description: Metabolic stability in human plasma assessed as parent compound remaining after 30 mins

[44] = in vivo; conditions: ICR, mouse, iv, 5 mg/kg; remark: listed apart in the source
Description: MRT in ICR mouse at 5 mg/kg, iv by LC-MS/MS analysis

[45] = in vivo; conditions: Sprague-Dawley, rat, iv, 5 mg/kg; remark: listed apart in the source
Description: AUC (0 to t) in Sprague-Dawley rat at 5 mg/kg, iv by LC-MS/MS analysis

[46] = in vivo; conditions: beagle, dog, po, 5 mg/kg; remark: listed apart in the source
Description: MRT in Beagle dog at 5 mg/kg, po by LC-MS/MS analysis

[47] = in vivo; conditions: ICR, mouse, po, 10 mg/kg; remark: listed apart in the source
[48] = species on record: Canis familiaris; conditions: dog, in vivo, po, 5 mg/kg
Description: Oral bioavailability in Beagle dog at 5 mg/kg by LC-MS/MS analysis

[49] = in vivo; conditions: Sprague-Dawley, rat, po, 10 mg/kg; remark: listed apart in the source
[50] = in vitro; conditions: rat, plasma; remark: listed apart in the source
Description: Metabolic stability in rat plasma assessed as parent compound remaining after 120 mins

[51] = in vivo; conditions: beagle, dog, iv, 3 mg/kg; remark: listed apart in the source
[52] = target: Tyrosine-protein kinase JAK1 (Homo sapiens, UniProt P23458)
Description: Inhibition of recombinant human JAK1 (866-end residues) in presence of ATP

[53] = target: T2, Tyrosine-protein kinase JAK2; assay type: ADME
Description: Inhibition of recombinant human JAK2 (808-end residues) in presence of ATP

T2 sequence (O60674 whole entry): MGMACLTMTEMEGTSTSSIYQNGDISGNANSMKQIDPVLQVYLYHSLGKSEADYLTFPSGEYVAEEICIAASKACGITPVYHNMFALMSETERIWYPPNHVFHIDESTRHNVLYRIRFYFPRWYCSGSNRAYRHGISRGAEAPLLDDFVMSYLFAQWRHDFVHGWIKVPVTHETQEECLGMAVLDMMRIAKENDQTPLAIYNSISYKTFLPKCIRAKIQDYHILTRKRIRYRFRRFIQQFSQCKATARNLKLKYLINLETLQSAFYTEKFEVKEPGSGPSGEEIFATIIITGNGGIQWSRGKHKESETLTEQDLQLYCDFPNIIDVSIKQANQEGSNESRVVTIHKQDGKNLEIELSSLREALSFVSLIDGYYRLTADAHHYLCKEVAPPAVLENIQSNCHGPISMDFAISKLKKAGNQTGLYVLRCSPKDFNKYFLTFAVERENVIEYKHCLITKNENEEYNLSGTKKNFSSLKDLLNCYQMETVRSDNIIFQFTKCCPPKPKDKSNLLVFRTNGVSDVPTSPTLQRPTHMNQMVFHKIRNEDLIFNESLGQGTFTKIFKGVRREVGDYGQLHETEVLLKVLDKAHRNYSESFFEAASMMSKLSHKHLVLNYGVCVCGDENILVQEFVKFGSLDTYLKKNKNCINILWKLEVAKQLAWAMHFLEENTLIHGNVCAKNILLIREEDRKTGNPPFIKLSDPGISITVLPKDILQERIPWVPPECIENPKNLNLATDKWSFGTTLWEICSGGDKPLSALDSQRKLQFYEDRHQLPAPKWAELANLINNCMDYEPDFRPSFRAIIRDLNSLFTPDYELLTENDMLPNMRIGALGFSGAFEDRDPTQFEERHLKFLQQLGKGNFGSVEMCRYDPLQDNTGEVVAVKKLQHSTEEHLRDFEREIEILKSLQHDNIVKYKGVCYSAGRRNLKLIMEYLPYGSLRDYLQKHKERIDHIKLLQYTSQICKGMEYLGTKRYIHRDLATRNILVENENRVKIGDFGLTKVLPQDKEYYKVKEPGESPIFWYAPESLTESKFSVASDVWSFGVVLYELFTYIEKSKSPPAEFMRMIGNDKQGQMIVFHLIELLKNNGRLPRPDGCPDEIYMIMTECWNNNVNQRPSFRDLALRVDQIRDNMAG
Chain of Tyrosine-protein kinase JAK1 (P23458 whole entry): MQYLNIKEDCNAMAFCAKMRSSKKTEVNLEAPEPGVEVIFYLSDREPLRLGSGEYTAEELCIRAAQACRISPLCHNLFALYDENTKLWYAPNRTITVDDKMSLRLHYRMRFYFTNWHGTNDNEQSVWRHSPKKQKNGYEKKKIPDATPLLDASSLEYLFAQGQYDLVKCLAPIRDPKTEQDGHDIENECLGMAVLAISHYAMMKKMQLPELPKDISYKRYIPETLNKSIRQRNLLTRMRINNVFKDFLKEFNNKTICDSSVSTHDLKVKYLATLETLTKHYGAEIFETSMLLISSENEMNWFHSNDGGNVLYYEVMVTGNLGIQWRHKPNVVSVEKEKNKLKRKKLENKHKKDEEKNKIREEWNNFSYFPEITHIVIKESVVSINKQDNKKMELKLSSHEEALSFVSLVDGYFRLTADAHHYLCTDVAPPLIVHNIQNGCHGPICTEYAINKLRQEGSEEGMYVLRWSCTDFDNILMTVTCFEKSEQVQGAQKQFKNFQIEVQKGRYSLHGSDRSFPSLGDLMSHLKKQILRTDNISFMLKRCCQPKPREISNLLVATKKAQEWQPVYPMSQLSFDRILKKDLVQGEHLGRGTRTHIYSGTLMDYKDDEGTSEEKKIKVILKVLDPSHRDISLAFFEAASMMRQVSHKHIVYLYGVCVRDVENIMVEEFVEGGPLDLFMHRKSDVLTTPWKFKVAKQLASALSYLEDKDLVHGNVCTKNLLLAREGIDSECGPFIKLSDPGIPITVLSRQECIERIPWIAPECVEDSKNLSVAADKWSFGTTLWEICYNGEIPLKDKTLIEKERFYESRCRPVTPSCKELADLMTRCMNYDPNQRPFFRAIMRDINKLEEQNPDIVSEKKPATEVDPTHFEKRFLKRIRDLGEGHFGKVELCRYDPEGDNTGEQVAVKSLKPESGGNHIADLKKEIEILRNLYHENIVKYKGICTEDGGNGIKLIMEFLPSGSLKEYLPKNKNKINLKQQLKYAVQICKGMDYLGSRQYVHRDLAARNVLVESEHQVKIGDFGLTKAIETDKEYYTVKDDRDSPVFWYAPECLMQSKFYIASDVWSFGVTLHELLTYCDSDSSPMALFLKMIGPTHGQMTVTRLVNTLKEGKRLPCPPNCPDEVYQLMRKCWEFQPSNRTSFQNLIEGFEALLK
Chain of Voltage-gated inwardly rectifying potassium channel KCNH2 (Q12809 whole entry): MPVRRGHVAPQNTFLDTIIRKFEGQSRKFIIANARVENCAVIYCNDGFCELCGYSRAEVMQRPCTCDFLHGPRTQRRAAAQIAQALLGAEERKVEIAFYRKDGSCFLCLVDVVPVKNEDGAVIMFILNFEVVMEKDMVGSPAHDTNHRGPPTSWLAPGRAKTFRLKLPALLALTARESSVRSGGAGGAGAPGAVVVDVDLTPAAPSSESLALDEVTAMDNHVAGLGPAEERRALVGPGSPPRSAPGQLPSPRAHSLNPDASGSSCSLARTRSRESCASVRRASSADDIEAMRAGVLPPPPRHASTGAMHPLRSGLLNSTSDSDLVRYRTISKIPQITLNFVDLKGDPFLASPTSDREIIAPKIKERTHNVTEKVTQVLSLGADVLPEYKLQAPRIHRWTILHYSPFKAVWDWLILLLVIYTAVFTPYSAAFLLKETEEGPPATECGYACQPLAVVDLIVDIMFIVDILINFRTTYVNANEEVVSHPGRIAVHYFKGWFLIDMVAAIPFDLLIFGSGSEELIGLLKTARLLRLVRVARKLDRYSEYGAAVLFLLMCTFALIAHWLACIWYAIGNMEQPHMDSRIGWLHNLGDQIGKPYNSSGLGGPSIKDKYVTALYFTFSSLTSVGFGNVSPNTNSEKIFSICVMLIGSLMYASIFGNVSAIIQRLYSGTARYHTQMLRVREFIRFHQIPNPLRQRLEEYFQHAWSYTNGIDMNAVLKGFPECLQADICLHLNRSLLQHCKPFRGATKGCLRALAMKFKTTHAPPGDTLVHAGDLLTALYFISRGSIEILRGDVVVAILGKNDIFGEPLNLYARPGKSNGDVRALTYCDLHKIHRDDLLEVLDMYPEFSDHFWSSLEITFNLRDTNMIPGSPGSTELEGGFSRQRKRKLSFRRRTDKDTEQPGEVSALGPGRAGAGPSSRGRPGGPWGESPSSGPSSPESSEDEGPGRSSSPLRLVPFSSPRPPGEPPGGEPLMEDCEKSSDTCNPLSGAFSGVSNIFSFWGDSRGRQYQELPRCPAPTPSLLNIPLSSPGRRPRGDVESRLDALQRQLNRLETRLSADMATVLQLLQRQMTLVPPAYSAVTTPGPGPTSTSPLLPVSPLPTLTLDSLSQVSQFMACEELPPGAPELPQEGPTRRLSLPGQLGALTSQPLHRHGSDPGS
Chain of CYP2D6 (P10635 whole entry): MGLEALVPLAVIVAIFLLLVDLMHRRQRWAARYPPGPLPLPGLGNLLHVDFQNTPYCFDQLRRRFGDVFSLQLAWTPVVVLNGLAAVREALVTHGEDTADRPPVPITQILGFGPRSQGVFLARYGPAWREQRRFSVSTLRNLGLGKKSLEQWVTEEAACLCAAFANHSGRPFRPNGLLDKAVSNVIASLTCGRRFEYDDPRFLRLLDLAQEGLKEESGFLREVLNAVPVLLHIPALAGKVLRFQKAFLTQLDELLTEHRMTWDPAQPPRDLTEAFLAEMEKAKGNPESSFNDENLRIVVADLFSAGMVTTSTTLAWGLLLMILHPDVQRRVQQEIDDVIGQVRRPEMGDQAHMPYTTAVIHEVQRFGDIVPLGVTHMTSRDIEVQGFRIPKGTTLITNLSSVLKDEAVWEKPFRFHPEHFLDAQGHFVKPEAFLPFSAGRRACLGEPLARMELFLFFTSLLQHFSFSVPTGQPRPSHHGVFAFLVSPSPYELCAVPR
Chain of CYP3A4 (P08684 whole entry): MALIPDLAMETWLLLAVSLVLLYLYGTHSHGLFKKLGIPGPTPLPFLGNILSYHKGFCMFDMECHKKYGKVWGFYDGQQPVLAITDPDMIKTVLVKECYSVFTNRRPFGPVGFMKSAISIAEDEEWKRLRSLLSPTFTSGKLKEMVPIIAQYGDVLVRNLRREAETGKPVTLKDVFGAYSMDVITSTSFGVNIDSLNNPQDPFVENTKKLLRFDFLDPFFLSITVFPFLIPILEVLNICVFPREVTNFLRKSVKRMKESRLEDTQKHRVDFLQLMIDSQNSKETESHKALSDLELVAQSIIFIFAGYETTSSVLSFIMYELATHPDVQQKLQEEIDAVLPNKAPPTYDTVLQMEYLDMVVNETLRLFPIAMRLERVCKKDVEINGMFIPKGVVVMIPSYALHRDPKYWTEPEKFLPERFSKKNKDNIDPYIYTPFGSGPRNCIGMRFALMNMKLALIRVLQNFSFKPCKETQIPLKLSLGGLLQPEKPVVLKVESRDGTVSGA
Chain of CYP2C19 (P33261 whole entry): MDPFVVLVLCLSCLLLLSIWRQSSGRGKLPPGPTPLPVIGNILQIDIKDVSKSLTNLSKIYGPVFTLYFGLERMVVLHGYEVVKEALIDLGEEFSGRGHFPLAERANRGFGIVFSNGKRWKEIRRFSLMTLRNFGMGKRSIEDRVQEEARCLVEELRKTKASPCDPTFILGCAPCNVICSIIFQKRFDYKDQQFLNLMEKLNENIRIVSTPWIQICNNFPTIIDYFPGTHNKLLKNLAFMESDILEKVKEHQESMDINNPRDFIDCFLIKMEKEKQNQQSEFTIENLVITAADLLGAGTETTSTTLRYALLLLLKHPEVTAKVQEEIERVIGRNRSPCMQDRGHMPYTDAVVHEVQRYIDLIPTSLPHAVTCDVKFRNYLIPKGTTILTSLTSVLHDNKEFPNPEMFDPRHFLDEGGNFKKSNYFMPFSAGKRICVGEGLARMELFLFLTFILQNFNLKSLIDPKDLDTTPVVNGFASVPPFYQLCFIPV

fraction unbound [1]: 0.823
AUC(0-t) [2]: 1900 ng·h/mL
half-life [3]: 1.7 h
remaining at 0.5 h [4]: > 100%
half-life [5]: 0.7 h
activity at 10 µM [6]: 98.2%
remaining at 0.5 h [7]: 97.6%
activity at 10 µM [8]: > 100%
MRT [9]: 2.4 h
half-life [10]: 2.1 h
half-life [11]: 1.6 h
Tmax [12]: 1.1 h
activity at 10 µM [13]: 91.8%
Cmax [14]: 1900 ng/mL
MRT [15]: 3.1 h
Papp B→A [16]: 7.7 ×10⁻⁶ cm/s
remaining at 0.5 h [17]: > 100%
activity at 10 µM [18]: > 100%
activity at 10 µM [19]: 89.3%
AUC(0-inf) [20]: 950 ng·h/mL
Papp A→B [22]: 3.8 ×10⁻⁶ cm/s
AUC(0-inf) [23]: 2100 ng·h/mL
AUC(0-t) [24]: 2100 ng·h/mL
fraction unbound [25]: 0.853
F [26]: 190%
AUC(0-t) [27]: 4100 ng·h/mL
remaining at 0.5 h [28]: 92.8%
Cmax [29]: 1000 ng/mL
Tmax [30]: 0.3 h
inhibition at 10 µM [31]: > 90%
AUC(0-inf) [32]: 680 ng·h/mL
half-life [33]: 2.1 h
AUC(0-t) [34]: 510 ng·h/mL
AUC(0-inf) [35]: 4300 ng·h/mL
remaining at 0.5 h [36]: 92.8%
AUC(0-t) [37]: 6400 ng·h/mL
AUC(0-inf) [38]: 6500 ng·h/mL
MRT [39]: 2.9 h
remaining at 2 h [40]: 99.8%
MRT [41]: 0.9 h
half-life [42]: 0.9 h
remaining at 0.5 h [43]: 96.3%
MRT [44]: 1.4 h
AUC(0-t) [45]: 930 ng·h/mL
MRT [46]: 3.1 h
Tmax [47]: 0.3 h
F [48]: 180%
Cmax [49]: 1900 ng/mL
remaining at 2 h [50]: > 100%
AUC(0-inf) [51]: 2200 ng·h/mL
Structure (SMILES): CN(c1ncnc2[nH]ccc12)[C@@H]1CCN(C(=O)CC#N)C1
IC50 [21]: 93000 nM

remaining at 0.5 h [7]: 13.4%
IC50 [52]: 1.9 nM
remaining at 0.5 h [17]: 3.1%
remaining at 0.5 h [28]: 2.5%
remaining at 0.5 h [36]: 10.4%
IC50 [53]: 18 nM
Structure (SMILES): CN(c1ncnc2[nH]ccc12)[C@@H]1CCN(S(=O)(=O)c2cccc([N+](=O)[O-])c2)C1

IC50 [52]: 16 nM
IC50 [53]: 450 nM
Structure (SMILES): CN(c1ncnc2[nH]ccc12)[C@H]1CN(C(=O)CC#N)CC12CCC2

IC50 [52]: 740 nM
IC50 [53]: 27000 nM
Structure (SMILES): CCCCN1CC[C@@H](N(C)c2ncnc3[nH]ccc23)C1

IC50 [52]: 53 nM
IC50 [53]: 1900 nM
Structure (SMILES): CN(c1ncnc2[nH]ccc12)[C@@H]1CCN(CCC#N)C1

IC50 [52]: 270 nM
IC50 [53]: 4400 nM
Structure (SMILES): CN(c1ncnc2[nH]ccc12)[C@@H]1CCN(S(=O)(=O)N2CCOCC2)C1

IC50 [52]: 25 nM
IC50 [53]: 130 nM
Structure (SMILES): CN(c1ncnc2[nH]ccc12)[C@@H]1CCN(S(=O)(=O)c2ccccc2F)C1

IC50 [52]: 10 nM
IC50 [53]: 170 nM
Structure (SMILES): CN(c1ncnc2[nH]ccc12)[C@@H]1CCN(C(=O)CN=[N+]=[N-])C1

IC50 [52]: 70 nM
IC50 [53]: 3900 nM
Structure (SMILES): CC(C)CC(=O)N1CC[C@@H](N(C)c2ncnc3[nH]ccc23)C1

IC50 [52]: 510 nM
IC50 [53]: 1900 nM
Structure (SMILES): N#Cc1cccc(S(=O)(=O)N2CC[C@@H](Nc3ncnc4[nH]ccc34)C2)c1

IC50 [52]: 650 nM
IC50 [53]: 19000 nM
Structure (SMILES): CN(c1ncnc2[nH]ccc12)[C@@H]1CCN(S(=O)(=O)c2cn(C)cn2)C1

IC50 [52]: 29 nM
IC50 [53]: 730 nM
Structure (SMILES): Cc1cccc(S(=O)(=O)N2CC[C@@H](N(C)c3ncnc4[nH]ccc34)C2)c1

IC50 [52]: 170 nM
IC50 [53]: 4800 nM
Structure (SMILES): CC(C)S(=O)(=O)N1CC[C@@H](N(C)c2ncnc3[nH]ccc23)C1

IC50 [52]: 19 nM
IC50 [53]: 110 nM
Structure (SMILES): CCN(c1ncnc2[nH]ccc12)[C@@H]1CCN(S(=O)(=O)c2cccc(C#N)c2)C1

IC50 [52]: 17 nM
IC50 [53]: 1400 nM
Structure (SMILES): N#Cc1cccc(S(=O)(=O)N2CC[C@@H](N(CC3CC3)c3ncnc4[nH]ccc34)C2)c1

IC50 [52]: 140 nM
IC50 [53]: 4500 nM
Structure (SMILES): CN(c1ncnc2[nH]ccc12)[C@@H]1CCN(S(=O)(=O)C(F)(F)F)C1

IC50 [52]: 14 nM
IC50 [53]: 53 nM
Structure (SMILES): CN(c1ncnc2[nH]ccc12)[C@@H]1CCN(S(=O)(=O)c2cccc(F)c2)C1

IC50 [52]: 28 nM
IC50 [53]: 430 nM
Structure (SMILES): CN(c1ncnc2[nH]ccc12)[C@@H]1CCN(S(=O)(=O)c2ccccc2)C1

Reference: ChEMBL document CHEMBL4219073, “Development of selective inhibitors for the treatment of rheumatoid arthritis: (R)-3-(3-(Methyl(7H-pyrrolo[2,3-d]pyrimidin-4-yl)amino)pyrrolidin-1-yl)-3-oxopropanenitrile as a JAK1-selective inhibitor” (Bioorg Med Chem, 2018)
